Assay results from publication PMC11380953, “Multivalent, calcium-independent binding of surfactant protein A and D to sulfated glycosaminoglycans of the alveolar epithelial glycocalyx” (American Journal of Physiology - Lung Cellular and …, 2024).
pKd: −log10 of the molar value. Read-outs that look alike come from different tables or passages of the source.

Experiments:
[1] = molecular target: T1, hSP-A (human SP-A, isolated from BAL of PAP patient) (Homo sapiens, UniProt Q8IWL1+Q8IWL2); assay: Microscale thermophoresis (MST) binding to hSP-A; parameters: Response Amplitude: unit not given here; conditions: for binding of hSP-A in the absence or presence of low calcium concentrations: 0 and 2.5 mM calcium (Fig. 3A-C); for Response Amplitude / pKd: hSP-A
T1 construct: Human PAP patient, BAL isolated; from tissue; host or cells: bronchoalveolar lavage fluid of a patient with pulmonary alveolar proteinosis
Description: (§1) Human-isolated and recombinant proteins were labeled using the Monolith Protein Labeling Kit RED-NHS according to the manufacturer’s instructions. This kit reagent reacts with lysine residues present in the sequence of the protein, as the dye carries a reactive NHS-ester group. Briefly, as all the proteins were in a Tris buffer solution, the buffer solution was exchanged to a HEPES-based buffer with the A-Column provided in the kit. Then, 10 µM solution of protein was incubated with a threefold excess of dye in 100 µL for 30 min at room temperature protected from light. The labeled protein was separated from the free dye using the B-Column provided in the kit. The concentration of the labeled protein {c(M) = [A205 − (A650 × 0.19)]/[31 × MWprotein]) and the degree of labeling [DOL = A650/(195.000 M^−1cm^−1 × c(M)] were calculated according to the manufacturer’s instruction, measuring absorption at 205 nm (for the protein) and 650 nm (for the dye).
(§2) Thermophoresis is the phenomenon of movement of particles along a temperature gradient. Solvated molecules move from higher to lower temperature. This movement or depletion of molecules from the heat is quantified by the Soret coefficient ST: Chot/Ccold = exp (−STΔT). The depletion of molecules depends on the interface between molecule and solvent. Therefore, thermophoresis monitors changes in size, charge, and solvation entropy of molecules. In this regard, the thermophoresis or movement of a protein is different from a protein-ligand complex ([35]). Microscale or miniaturized thermophoresis allows to monitor molecular interaction in only a few microliters. For this method, the fluorescently labeled protein is mixed with a decreasing concentration of a ligand in 16 glass capillaries. The initial fluorescence is measured (Fcold), then an infrared (IR) laser beam is switched on and focused on the center of the first capillary, where the temperature gradient is created from the center to the walls of the capillary. At the same time, a dichroic mirror allows fluorescence from the labeled protein to be monitored (Fhot). The rate of fluorescence change is related to the amount of protein-ligand complex form, which depends on the ligand concentration, due to changes in size, charge, or hydration shell of the protein-ligand complex. The dissociation constant KD is calculated from the binding curve derived by plotting the normalized fluorescence (FNorm) at a given time after the start of the thermophoresis against the respective ligand concentration ([33], [34], [36]).
(§3) Samples were measured in a Monolith NT.115, using Premium Capillaries (MO-K025) and Monolith Protein labeling kit RED-NHS (MO-L011) all from NanoTemper Technologies (Munich, Germany). Solutions of a 3X concentrated MST buffer (15 mM Tris, 300 mM NaCl, 0.3% Tween 20, 15 mM CaCl2, pH 7.4), sugars (270 mM) or GAG (30 µM) solution, and protein solution (27 nM) were prepared separately. When a different concentration was used, a threefold concentration of the solution was prepared. Afterward, sugars and GAG solutions were diluted 1:2 with water in a series of 16 steps. For the measurement, 3 µL of each prepared component (3 µL MST buffer, 3 µL GAG solution, and 3 µL labeled protein) was mixed, centrifuged shortly to eliminate precipitates, and loaded into a glass capillary. The final concentrations of the sugars were thus between 90 –and 0.00275 mM or GAGs 10 and 0.000305 µM for GAGs, respectively. The 16 capillaries were loaded in the Monolith NT.115 and measurements were performed with a 40% LED power and medium MST power at 25°C.
(§4) Every set of 16 capillaries was prepared in 3–6 replicates (technical replicates) and measured. The replicate measures of every capillary were plotted against concentration and outliers were excluded, using the MO Affinity Analysis 3 v01 software (NanoTemper Technologies, Munich, Germany). […]

[2] = molecular target: T2, rhSP-D (human recombinant SP-D) (Homo sapiens, UniProt P35247); assay: Microscale thermophoresis (MST) binding to rhSP-D; parameters: Response Amplitude: unit not given here
T2 construct: host or cells: CHO cells
T2 sequence (P35247 21-375): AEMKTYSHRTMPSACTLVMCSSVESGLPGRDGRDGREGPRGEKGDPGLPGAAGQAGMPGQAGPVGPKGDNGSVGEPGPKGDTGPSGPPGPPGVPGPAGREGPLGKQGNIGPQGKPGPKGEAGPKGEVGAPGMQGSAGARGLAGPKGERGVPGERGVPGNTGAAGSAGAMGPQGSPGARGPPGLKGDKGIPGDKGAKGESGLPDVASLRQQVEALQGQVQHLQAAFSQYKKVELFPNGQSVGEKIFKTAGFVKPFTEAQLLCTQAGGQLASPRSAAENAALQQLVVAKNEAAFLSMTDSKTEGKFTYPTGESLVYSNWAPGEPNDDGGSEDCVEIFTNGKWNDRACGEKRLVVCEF
Description: as §1, §2, §3, §4

[3] = molecular target: T3, recSP-A1 (human recombinant SP-A1) (Homo sapiens, UniProt Q8IWL2); assay: Microscale thermophoresis (MST) binding to recSP-A1; conditions: for pKd: recSP-A1, GAGs from Fig. 2, read-out: Kd (±KD Confidence); for Response Amplitude: recSP-A1, MST, GAGs from Fig. 2
T3 construct: purchased Aviva Systems Biology OPCD07130; host or cells: prokaryotic expression
Description: as §1, §2, §3, §4

[4] = molecular target: T4, recSP-A2 (human recombinant SP-A2) (Homo sapiens, UniProt Q8IWL1); assay: Microscale thermophoresis (MST) binding to recSP-A2; conditions: for pKd: recSP-A2, GAGs from Fig. 2, read-out: Kd (±KD Confidence); for Response Amplitude: recSP-A2, MST, GAGs from Fig. 2
T4 construct: purchased Aviva Systems Biology OPCD07132; host or cells: prokaryotic expression
Description: as §1, §2, §3, §4

[5] = molecular target: T5, hSP-D (human SP-D, isolated from BAL of PAP patient) (Homo sapiens, UniProt P35247); assay: Microscale thermophoresis (MST) binding to hSP-D; conditions: for pKd: GAGs from Fig. 2, read-out: Kd (±KD Confidence); for Response Amplitude: MST, GAGs from Fig. 2
T5 construct: hSP-D; 0.6 µM; Human PAP patient, BAL isolated; from tissue; host or cells: bronchoalveolar lavage fluid of a patient with pulmonary alveolar proteinosis
T5 sequence (P35247 21-375): T2 sequence (P35247 21-375)
Description: as §1, §2, §3, §4

[6] = GAGs from Fig. 2, read-out: Kd (±KD Confidence)

T4 sequence (Q8IWL1 21-248): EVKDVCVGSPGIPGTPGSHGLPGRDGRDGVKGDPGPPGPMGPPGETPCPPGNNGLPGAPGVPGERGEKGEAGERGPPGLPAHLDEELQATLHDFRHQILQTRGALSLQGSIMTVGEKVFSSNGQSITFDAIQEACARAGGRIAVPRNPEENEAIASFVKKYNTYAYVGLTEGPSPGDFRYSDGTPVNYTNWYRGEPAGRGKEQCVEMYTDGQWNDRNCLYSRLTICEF
T1 sequence (Q8IWL2 21-248): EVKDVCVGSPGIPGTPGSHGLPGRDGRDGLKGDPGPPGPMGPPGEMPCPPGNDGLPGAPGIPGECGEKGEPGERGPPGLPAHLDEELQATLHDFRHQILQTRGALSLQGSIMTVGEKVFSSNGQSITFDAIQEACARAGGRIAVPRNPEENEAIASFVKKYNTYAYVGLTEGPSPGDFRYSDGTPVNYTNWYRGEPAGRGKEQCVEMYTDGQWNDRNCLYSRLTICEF
T1 sequence (Q8IWL1 21-248): as the sequence (Q8IWL1 21-248) above
T3 sequence (Q8IWL2 21-248): as the sequence (Q8IWL2 21-248) above

Substance | binding of hSP-A in the absence or presence of low calcium concentrations ([1]; MST) | Response Amplitude ([1]; 0 mM Ca^2+) | Response Amplitude ([1]; 5 mM Ca^2+) | pKd ([1]; 5 mM Ca^2+, read-out: KD) | Response Amplitude ([1]; 10 mM Ca^2+) | pKd ([1]; 10 mM Ca^2+, read-out: KD) | pKd [1, 6] | Response Amplitude ([1]; MST, GAGs from Fig. 2) | Response Amplitude ([2]; 5 mM Ca^2+) | pKd ([2]; 5 mM Ca^2+, read-out: KD) | Response Amplitude ([2]; 10 mM Ca^2+) | pKd ([2]; 10 mM Ca^2+, read-out: KD) | pKd [2, 6] | Response Amplitude ([2]; MST, GAGs from Fig. 2) | pKd [3] | Response Amplitude [3] | pKd [4] | Response Amplitude [4] | pKd [5] | Response Amplitude [5] | further results
heparan sulfate sodium [HS] | binds | 3.61 | 7.51 | 8.43 | 2.79 | 6.43 | 7.63 | 11.92 | 6.29 | 6.37 | 15.22 | 9.16 | 6.54 | 3.55 | 6.57 | 15.51 | 6.84 | 15.59 | 5.25 | 3.03 | pKd ([1]; 0 mM Ca^2+, read-out: KD): 8.49; Response Amplitude ([1]; 2.5 mM Ca^2+): 9.27; pKd ([1]; 2.5 mM Ca^2+, read-out: KD): 9.73; Response Amplitude ([2]; 0 mM Ca^2+): 12.04; pKd ([2]; 0 mM Ca^2+, read-out: KD): 6.13; Response Amplitude ([2]; 2.5 mM Ca^2+): 33.47; pKd ([2]; 2.5 mM Ca^2+, read-out: KD): 8.13
hyaluronic acid sodium salt [HA] | not able to bind | – | 7.31 | 8.54 | 3.65 | 7.26 | 7.91 | 12.93 | 5.33 | 7.38 | 3.25 | 7.51 | 7.66 | 9.67 | 6.00 | 17.13 | 5.73 | 19.28 | 5.66 | 3.45 | –
chondroitin sulfate sodium salt [CS] | binds | 7.16 | 8.07 | 8.13 | 6.89 | 8.23 | 6.65 | 8.37 | 10.83 | 7.01 | 21.36 | 6.88 | 9.09 | 23.54 | 7.10 | 17.02 | 7.26 | 31.90 | 5.24 | 3.74 | pKd ([1]; 0 mM Ca^2+, read-out: KD): 9.00; Response Amplitude ([1]; 2.5 mM Ca^2+): 13.45; Response Amplitude ([2]; 0 mM Ca^2+): 16.10; pKd ([2]; 0 mM Ca^2+, read-out: KD): 4.75; Response Amplitude ([2]; 2.5 mM Ca^2+): 10.05; pKd ([2]; 2.5 mM Ca^2+, read-out: KD): 6.82
